{"source": "patent US7407961B2", "about": "“Pyrazine derivatives and pharmaceutical use thereof” (Astellas Pharma Inc., priority 2003, dated 2008)", "note": "Counter-ions that a name gives are not always drawn."}
{"units": {"melting point": "°C"}}
{"smiles": "CC(C)n1cc(-c2nc(C#N)c(N)nc2-c2ccc(F)cc2)ccc1=O", "note": "(hydrate or solvate) [Example 35, 3-Amino-5-(4-fluorophenyl)-6-(1-isopropyl-6-oxo-1,6-dihydro-3-pyridyl)-2-pyrazinecarbonitrile]", "melting point": 207}
{"smiles": "CC(C)n1cc(-c2nc(C(N)=O)c(N)nc2-c2cccc(OC(F)(F)F)c2)ccc1=O", "note": "(hydrate or solvate) [Example 27, 3-Amino-6-(1-isopropyl-6-oxo-1,6-dihydro-3-pyridyl)-5-[3-(trifluoromethoxy)phenyl]-2-pyrazinecarboxamide]", "melting point": 265.5}
{"smiles": "CC(C)n1cc(-c2nc(C#N)c(N)nc2-c2ccccc2)ccc1=O", "note": "[Example 14, 3-Amino-6-(1-isopropyl-6-oxo-1,6-dihydro-3-pyridyl)-5-phenyl-2-pyrazinecarbonitrile]", "melting point": 204.5}
{"smiles": "N#Cc1nc(-c2ccc(=O)[nH]c2)c(-c2ccccc2)nc1N", "note": "(hydrate or solvate) [Example 10, 3-amino-6-(6-oxo-1,6-dihydro-3-pyridyl)-5-phenyl-2-pyrazinecarbonitrile]", "melting point": "243 to 248"}
{"smiles": "CC(C)n1cc(-c2nc(C(N)=O)c(N)nc2-c2ccccc2F)ccc1=O", "note": "(hydrate or solvate) [Example 17, 3-Amino-5-(2-fluorophenyl)-6-(1-isopropyl-6-oxo-1,6-dihydro-3-pyridyl)-2-pyrazinecarboxamide]", "melting point": 251.7}
{"smiles": "COc1ccccc1-c1nc(N)c(C(N)=O)nc1-c1ccc(=O)n(C(C)C)c1", "note": "(hydrate or solvate) [Example 23, 3-Amino-6-(1-isopropyl-6-oxo-1,6-dihydro-3-pyridyl)-5-(2-methoxyphenyl)-2-pyrazinecarboxamide]", "melting point": 263.1}
{"smiles": "CC(C)n1cc(-c2nc(C#N)c(N)nc2-c2ccccc2F)ccc1=O", "note": "(hydrate or solvate) [Example 33, 3-Amino-5-(2-fluorophenyl)-6-(1-isopropyl-6-oxo-1,6-dihydro-3-pyridyl)-2-pyrazinecarbonitrile]", "melting point": 210.6}
{"smiles": "CCn1cc(-c2nc(C#N)c(N)nc2-c2ccccc2)ccc1=O", "note": "[Example 12, 3-Amino-6-(1-ethyl-6-oxo-1,6-dihydro-3-pyridyl)-5-phenyl-2-pyrazinecarbonitrile]", "melting point": "193 to 199"}
{"smiles": "CC(C)n1cc(-c2nc(C(N)=O)c(N)nc2-c2cccc(Cl)c2)ccc1=O", "note": "(hydrate or solvate) [Example 21, 3-Amino-5-(3-chlorophenyl)-6-(1-isopropyl-6-oxo-1,6-dihydro-3-pyridyl)-2-pyrazinecarboxamide]", "melting point": 232.6}
{"smiles": "NC(=O)c1nc(-c2ccc(=O)[nH]c2)c(-c2ccccc2)nc1N", "note": "(hydrate or solvate) [Example 2, 3-amino-6-(6-oxo-1,6-dihydro-3-pyridyl)-5-phenyl-2-pyrazinecarboxamide]", "melting point": "215 to 220"}
{"smiles": "CC(C)n1cc(-c2nc(C(N)=O)c(N)nc2-c2ccccc2)ccc1=O", "note": "(hydrate or solvate) [Example 16, 3-amino-6-(1-isopropyl-6-oxo-1,6-dihydro-3-pyridyl)-5-phenyl-2-pyrazinecarboxamide]", "melting point": 245}
{"smiles": "Cn1cc(-c2nc(C(N)=O)c(N)nc2-c2ccccc2)ccc1=O", "note": "[Example 3, 3-amino-6-(1-methyl-6-oxo-1,6-dihydro-3-pyridyl)-5-phenyl-2-pyrazinecarboxamide]", "melting point": "> 250"}
{"smiles": "CC(C)n1cc(-c2nc(C(N)=O)c(N)nc2-c2ccc(OC(F)(F)F)cc2)ccc1=O", "note": "(hydrate or solvate) [Example 28, 3-Amino-6-(1-isopropyl-6-oxo-1,6-dihydro-3-pyridyl)-5-[4-(trifluoromethoxy)phenyl]-2-pyrazinecarboxamide]", "melting point": 264}
{"smiles": "CC(C)n1cc(-c2nc(C(N)=O)c(N)nc2-c2ccc(F)cc2)ccc1=O", "note": "(hydrate or solvate) [Example 19, 3-Amino-5-(4-fluorophenyl)-6-(1-isopropyl-6-oxo-1,6-dihydro-3-pyridyl)-2-pyrazinecarboxamide]", "melting point": 235.6}
{"smiles": "CC(C)n1cc(-c2nc(C(N)=O)c(N)nc2-c2ccc(F)c(F)c2)ccc1=O", "note": "(hydrate or solvate) [Example 29, 3-Amino-5-(3,4-difluorophenyl)-6-(1-isopropyl-6-oxo-1,6-dihydro-3-pyridyl)-2-pyrazinecarboxamide]", "melting point": 225.8}
{"smiles": "COc1cccc(-c2nc(N)c(C#N)nc2-c2ccc(=O)n(C(C)C)c2)c1", "note": "(hydrate or solvate) [Example 37, 3-Amino-6-(1-isopropyl-6-oxo-1,6-dihydro-3-pyridyl)-5-(3-methoxyphenyl)-2-pyrazinecarbonitrile]", "melting point": 192.3}
{"smiles": "CC(C)n1cc(-c2nc(C(N)=O)c(N)nc2-c2ccc(C#N)cc2)ccc1=O", "note": "(hydrate or solvate) [Example 31, 3-Amino-5-(4-cyanophenyl)-6-(1-isopropyl-6-oxo-1,6-dihydro-3-pyridyl)-2-pyrazinecarboxamide]", "melting point": 292}
{"smiles": "CC(C)n1cc(-c2nc(C(N)=O)c(N)nc2-c2ccccc2OC(F)(F)F)ccc1=O", "note": "(hydrate or solvate) [Example 26, 3-Amino-6-(1-isopropyl-6-oxo-1,6-dihydro-3-pyridyl)-5-[2-(trifluoromethoxy)phenyl]-2-pyrazinecarboxamide]", "melting point": 206.5}
{"smiles": "CC(C)n1cc(-c2nc(C#N)c(N)nc2-c2ccccc2)ccc1=O", "note": "(as salt: Na) (hydrate or solvate) [Example 32, 3-Amino-6-(1-isopropyl-6-oxo-1,6-dihydro-3-pyridyl)-5-phenyl-2-pyrazinecarbonitrile]", "melting point": 205.4}
{"smiles": "COc1ccc(-c2nc(N)c(C(N)=O)nc2-c2ccc(=O)n(C(C)C)c2)cc1", "note": "(hydrate or solvate) [Example 25, 3-Amino-6-(1-isopropyl-6-oxo-1,6-dihydro-3-pyridyl)-5-(4-methoxyphenyl)-2-pyrazinecarboxamide]", "melting point": 243.9}
{"smiles": "CC(C)n1cc(-c2nc(C#N)c(N)nc2-c2cccc(F)c2)ccc1=O", "note": "(hydrate or solvate) [Example 34, 3-Amino-5-(3-fluorophenyl)-6-(1-isopropyl-6-oxo-1,6-dihydro-3-pyridyl)-2-pyrazinecarbonitrile]", "melting point": 210.6}
{"smiles": "COc1ccccc1-c1nc(N)c(C#N)nc1-c1ccc(=O)n(C(C)C)c1", "note": "(hydrate or solvate) [Example 36, 3-Amino-6-(1-isopropyl-6-oxo-1,6-dihydro-3-pyridyl)-5-(2-methoxyphenyl)-2-pyrazinecarbonitrile]", "melting point": 222.6}
{"smiles": "COc1ccc(-c2nc(C#N)c(N)nc2-c2ccccc2)cn1", "note": "[Example 1, 3-amino-6-(6-methoxy-3-pyridyl)-5-phenyl-2-pyrazinecarbonitrile]", "melting point": "201 to 205"}
